Experimental data as given in patent US4115385A, “Antibacterial 3-(5-tetrazolyl) penam compounds” (Pfizer Inc., priority 1977, dated 1978).
Converted amounts (≈) assume the structure as drawn.

System: Streptococcus pyogenes
Test: In vitro minimum inhibitory concentration (MIC) vs. Strep. pyogenes
Type: cell-based
Details: Streptococcus pyogenes, read-out: MIC vs. Strep. pyogenes
Outline: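 Broth inoculated with bacteria and test antibiotic, incubated overnight and read visually; MIC is the lowest concentration preventing turbidity. Test preparations also contain some of the corresponding tetrazole tautomer.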

Point of comparison: `CC1(C)S[C@@H]2[C@H](NC(=O)[C@H](NC(N)=O)c3ccccc3)C(=O)N2[C@H]1c1nn[nH]n1` [D-2-ureido-2-phenylacetyl, 6-(D-2-Ureido-2-phenylacetamido)-2,2-dimethyl-3-(5-tetrazolyl)-penam], MIC 0.1 µg/mL (≈ 0.24 µM). Against it:
- CC1(C)S[C@@H]2[C@H](NC(=O)[C@H](NC(=O)CCl)c3ccccc3)C(=O)N2[C@H]1c1nn[nH]n1 [D-2-(2-chloroacetamido)-2-phenylacetyl, 6-(D-2-[2-Chloroacetamido]-2-phenylacetamido)-2,2-dimethyl-3-(5-tetrazolyl)penam] — lower, < 0.1 µg/mL
- CC1(C)S[C@@H]2[C@H](NC(=O)[C@H](NC(=O)c3ccco3)c3ccccc3)C(=O)N2[C@H]1c1nnn[nH]1 [D-2-(2-furancarboxamido)-2-phenylacetyl] — the same, 0.1 µg/mL (≈ 0.214 µM)
- CC1(C)S[C@@H]2[C@H](NC(=O)[C@H](NC(=O)Cc3ccccc3)c3ccccc3)C(=O)N2[C@H]1c1nnn[nH]1 [D-2-(2-phenylacetamido)-2-phenylacetyl] — lower, < 0.1 µg/mL
- CC1(C)S[C@@H]2[C@H](NC(=O)[C@H](NC(=O)NC(=O)c3ccco3)c3ccccc3)C(=O)N2[C@H]1c1nn[nH]n1 [D-2-(3-[2-furoyl]ureido)-2-phenylacetyl, 6-(D-2-[3-(2-Furoyl)ureido]-2-phenylacetamido)-2,2-dimethyl-3-(5-tetrazolyl)penam] — lower, < 0.1 µg/mL
- Cc1ccc(NC(=O)N[C@@H](C(=O)N[C@@H]2C(=O)N3[C@@H]2SC(C)(C)[C@@H]3c2nnn[nH]2)c2ccccc2)cc1 [D-2-(3-[p-tolyl]ureido)-2-phenylacetyl] — lower, < 0.1 µg/mL
- CC1(C)S[C@@H]2[C@H](NC(=O)[C@H](NC(=O)CCN)c3ccccc3)C(=O)N2[C@H]1c1nn[nH]n1 [D-2-(3-aminopropionamido)-2-phenylacetyl, 6-(D-2-[3-Aminopropionamido]-2-phenylacetamido)-2,2-dimethyl-3-(5-tetrazolyl)penam] — lower, < 0.1 µg/mL
- CC1(C)S[C@@H]2[C@H](NC(=O)[C@H](NC(=O)NC(=N)N)c3ccccc3)C(=O)N2[C@H]1c1nnn[nH]1 [D-2-(3-guanylureido)-2-phenylacetyl, 6-(D-2-[3-Guanylureido]-2-phenylacetamido)-2,2-dimethyl-3-(5-tetrazolyl)penam] — lower, < 0.1 µg/mL
- CC1(C)S[C@@H]2[C@H](NC(=O)[C@H](NC(=S)Nc3ccccc3)c3ccccc3)C(=O)N2[C@H]1c1nnn[nH]1 [D-2-(3-phenylthioureido)-2-phenylacetyl, 6-(D-2-[3-Phenylthioureido]-2-phenylacetamide)-2,2-dimethyl-3-(5-tetrazol)penam] — lower, < 0.1 µg/mL
- CC1(C)S[C@@H]2[C@H](NC(=O)[C@H](NC(=O)Nc3ccccc3)c3ccccc3)C(=O)N2[C@H]1c1nnn[nH]1 [D-2-(3-phenylureido)-2-phenylacetyl] — lower, < 0.1 µg/mL
- CC1(C)S[C@@H]2[C@H](NC(=O)[C@H](NC(=O)c3ccc(N)cc3)c3ccccc3)C(=O)N2[C@H]1c1nn[nH]n1 [D-2-(4-aminobenzamido)-2-phenylacetyl, 6-(D-2-[4-Aminobenzamido]-2-phenylacetamido)-2,2-dimethyl-3-(5-tetrazolyl)penam] — lower, < 0.1 µg/mL
- CC1(C)S[C@@H]2[C@H](NC(=O)[C@H](NC(=O)c3ccccc3)c3ccccc3)C(=O)N2[C@H]1c1nnn[nH]1 [D-2-(benzamido)-2-phenylacetyl] — lower, < 0.1 µg/mL
- CC1(C)S[C@@H]2[C@H](NC(=O)[C@H](NC(=O)NC(N)=O)c3ccccc3)C(=O)N2[C@H]1c1nnn[nH]1 [D-2-allophanamido-2-phenylacetyl, 6-(D-2-Allophanamido-2-phenylacetamido)-2,2-dimethyl-3-(5-tetrazolyl)penam] — lower, < 0.1 µg/mL
- CC1(C)S[C@@H]2[C@H](NC(=O)[C@H](N)C3=CCC=CC3)C(=O)N2[C@H]1c1nnn[nH]1 [D-2-amino-2-(1,4-cyclohexadienyl)acetyl, 6-(D-2-Amino-2-[1,4-cyclohexadienyl]acetamido)-2,2-dimethyl-3-(5-tetrazolyl)penam] — lower, < 0.1 µg/mL
- CC1(C)S[C@@H]2[C@H](NC(=O)[C@H](N)C3CCCO3)C(=O)N2[C@H]1c1nnn[nH]1 (stereo partly drawn) [D-2-amino-2-(2-tetrahydrofuryl)acetyl] — lower, < 0.1 µg/mL
- CC1(C)S[C@@H]2[C@H](NC(=O)[C@H](N)c3cccc(N)c3)C(=O)N2[C@H]1c1nnn[nH]1 [D-2-amino-(3-aminophenyl)acetyl, 6-(D-2-Amino-2-[3-aminophenyl]acetamido)-2,2-dimethyl-3-(5-tetrazolyl)penam] — lower, < 0.1 µg/mL
- CC1(C)S[C@@H]2[C@H](NC(=O)Oc3ccccc3)C(=O)N2[C@H]1c1nnn[nH]1 [phenoxycarbonyl] — lower, < 0.1 µg/mL
- CC1(C)S[C@@H]2[C@H](NC(=O)C(=O)c3ccccc3)C(=O)N2[C@H]1c1nnn[nH]1 [phenylglyoxyloyl] — lower, < 0.1 µg/mL
- CC1(C)S[C@@H]2[C@H](NC(=O)C(=O)Cc3ccccc3)C(=O)N2[C@H]1c1nnn[nH]1 [phenylpyruvoyl, 6-Phenylpyruvamido-2,2-dimethyl-3-(5-tetrazolyl)penam] — lower, < 0.1 µg/mL

Same assay, conditions: Streptococcus pyogenes; Table II; two-fold serial dilution, Brain-Heart Infusion broth, overnight; read-out: MIC vs. Strep. pyogenes

Point of comparison: `CC1(C)S[C@@H]2[C@H](NC(=O)NC(=O)c3ccco3)C(=O)N2[C@H]1c1nn[nH]n1` [N-(2-furoyl)carbamoyl], MIC 1.56 µg/mL (≈ 4.13 µM). Against it:
- CC1(C)S[C@@H]2[C@H](NC(=O)[C@H](NC(=O)CC#N)c3ccccc3)C(=O)N2[C@H]1c1nnn[nH]1 [D-2-(2-cyanoacetamido)-2-phenylacetyl] — 390-fold lower, 0.004 µg/mL (≈ 0.00908 µM)
- CC1(C)S[C@@H]2[C@H](NC(=O)[C@H](NC(=O)COc3ccccc3)c3ccccc3)C(=O)N2[C@H]1c1nnn[nH]1 [D-2-(2-phenoxyacetamido)-2-phenylacetyl] — 390-fold lower, 0.004 µg/mL (≈ 0.00788 µM)
- CNC(=O)N[C@@H](C(=O)N[C@@H]1C(=O)N2[C@@H]1SC(C)(C)[C@@H]2c1nnn[nH]1)c1ccccc1 [D-2-(3-methylureido)-2-phenylacetyl] — 32-fold higher, 50 µg/mL (≈ 116 µM)
- CC1(C)S[C@@H]2[C@H](NC(=O)[C@H](NC(=O)c3ccc([N+](=O)[O-])cc3)c3ccccc3)C(=O)N2[C@H]1c1nn[nH]n1 [D-2-(4-nitrobenzamido)-2-phenylacetyl, 6-(D-2-[4-nitrobenzamido]-2-phenylacetamido)-2,2-dimethyl-3-(5-tetrazolyl)penam] — 390-fold lower, 0.004 µg/mL (≈ 0.00765 µM)
- CC(=O)C(=O)N[C@@H](C(=O)N[C@@H]1C(=O)N2[C@@H]1SC(C)(C)[C@@H]2c1nnn[nH]1)c1ccccc1 [D-2-(acetylformamido)-2-phenylacetyl] — 32-fold higher, 50 µg/mL (≈ 113 µM)
- CC1(C)S[C@@H]2[C@H](NC(=O)[C@H](NC(=O)C(=O)c3ccccc3)c3ccccc3)C(=O)N2[C@H]1c1nnn[nH]1 [D-2-(benzoylformamido)-2-phenylacetyl] — 16-fold higher, 25 µg/mL (≈ 49.5 µM)
- CCCC(=O)N[C@@H](C(=O)N[C@@H]1C(=O)N2[C@@H]1SC(C)(C)[C@@H]2c1nnn[nH]1)c1ccccc1 [D-2-(butyramido)-2-phenylacetyl] — 4-fold lower, 0.39 µg/mL (≈ 0.879 µM)
- CCS(=O)(=O)N[C@@H](C(=O)N[C@@H]1C(=O)N2[C@@H]1SC(C)(C)[C@@H]2c1nn[nH]n1)c1ccccc1 [D-2-(ethanesulfonamido)-2-phenylacetyl] — 4-fold lower, 0.39 µg/mL (≈ 0.838 µM)
- CCOC(=O)N[C@@H](C(=O)N[C@@H]1C(=O)N2[C@@H]1SC(C)(C)[C@@H]2c1nnn[nH]1)c1ccccc1 [D-2-(ethoxycarbonylamino)-2-phenylacetyl] — 4-fold higher, 6.25 µg/mL (≈ 14 µM)
- CC(=O)C(C(=O)NC1C(=O)N2C(c3nnn[nH]3)C(C)(C)S[C@H]12)c1ccccc1 (stereo partly drawn) [D-2-acetyl-2-phenylacetyl, 6-(2-Acetyl-2-phenylacetamido)-2,2-dimethyl-3-(5-tetrazolyl)penam] — 390-fold lower, 0.004 µg/mL (≈ 0.00999 µM)
- CC1(C)S[C@@H]2[C@H](NC(=O)[C@H](N)c3ccco3)C(=O)N2[C@H]1c1nnn[nH]1 [D-2-amino-2-(2-furyl)acetyl] — 4-fold lower, 0.39 µg/mL (≈ 1.07 µM)
- CC1(C)S[C@@H]2[C@H](NC(=O)[C@H](N)c3ccc(F)cc3)C(=O)N2[C@H]1c1nnn[nH]1 [D-2-amino-2-(p-fluorophenyl)acetyl, 6-(D-2-amino-2-[p-fluorophenyl]acetamido)-2,2-dimethyl-3-(5-tetrazolyl)penam] — 2-fold higher, 3.12 µg/mL (≈ 7.97 µM)
- CC1(C)S[C@@H]2[C@H](NC(=O)[C@H](N)c3ccc(N)cc3)C(=O)N2[C@H]1c1nnn[nH]1 [D-2-amino-(4-aminophenyl)acetyl, 6-(D-2-Amino-2-[4-aminophenyl]acetamido)-2,2-dimethyl-3-(5-tetrazolyl)penam] — 4-fold lower, 0.39 µg/mL (≈ 1 µM)
- CC1(C)S[C@@H]2[C@H](NC(=O)[C@@H](c3ccccc3)N3C(=O)c4ccccc4C3=O)C(=O)N2[C@H]1c1nnn[nH]1 [D-2-phthalimido-2-phenylacetyl, 6-(D-2-Phthalimido-2-phenylacetamido)-2,2-dimethyl-3-(5-tetrazolyl)penam] — 390-fold lower, 0.004 µg/mL (≈ 0.00794 µM)
- CC1(C)S[C@@H]2[C@H](NC(=O)[C@H](NS(=O)(=O)O)c3ccccc3)C(=O)N2[C@H]1c1nnn[nH]1 [D-2-sulfoamino-2-phenylacetyl, 6-(D-2-sulfoamino-2-phenylacetamido)-2,2-dimethyl-3-(5-tetrazolyl)penam] — 8-fold higher, 12.5 µg/mL (≈ 27.6 µM)
- CC1(C)S[C@@H]2[C@H](NC(=O)[C@@H](N)c3ccc(O)cc3)C(=O)N2[C@H]1c1nnn[nH]1 [L-2-amino-2-(p-hydroxyphenyl)acetyl] — lower, < 0.1 µg/mL
- CC1(C)S[C@@H]2[C@H](NC(=O)[C@@H](N)Cc3ccc(O)cc3)C(=O)N2[C@H]1c1nn[nH]n1 [L-2-amino-3-(p-hydroxyphenyl)propionyl, 6-(L-2-amino-3-[4-hydroxyphenyl]propionamido)-2,2-dimethyl-3-(5-tetrazoyl)penam] — 7.8-fold lower, 0.2 µg/mL (≈ 0.496 µM)
- Cc1ccc(S(=O)(=O)NC(=O)N[C@@H]2C(=O)N3[C@@H]2SC(C)(C)[C@@H]3c2nn[nH]n2)cc1 [N-(p-toluenesulfonyl)carbomoyl] — the same, 1.56 µg/mL (≈ 3.57 µM)
- CC(=O)NC(=O)N[C@@H]1C(=O)N2[C@@H]1SC(C)(C)[C@@H]2c1nn[nH]n1 [N-acetylcarbomoyl] — the same, 1.56 µg/mL (≈ 4.79 µM)
